Measured values reported in article PMC9333455, “Drug repurposing based on a quantum-inspired method versus classical fingerprinting uncovers potential antivirals against SARS-CoV-2” (PLoS Computational Biology, 2022).
Like-named read-outs stand apart in the source and are kept apart here.

What was measured:
[1] = target: SARS-CoV-2 RdRP (Severe acute respiratory syndrome coronavirus 2, UniProt P0DTD1); test: SARS-CoV-2 RdRP RNA polymerization activity, in vitro fluorescent assay; assay type: biochemical; settings: for inhibition of RdRP polymerization activity (in words): dose-response, relative to DMSO
[2] = set-up: method as in PMID 25251156; settings: halted progression from phase II clinical trials; cited from earlier work
[3] = test system: SARS-CoV-2 (England 02/2020/407073 isolate); test: SARS-CoV-2 replication in Vero E6 cells, plaque assay; assay type: cell-based
[4] = test system: SARS-CoV-2; test: Total and genomic viral RNA levels in cell lysates, RT-qPCR; assay type: cell-based; settings: Vero E6 and Caco-2 cells, 48 hours after infection
[5] = test system: Vero E6 cells; test: Cytotoxicity in uninfected Vero E6 cells, MTT assay
[6] = test system: SARS-CoV-2; settings: cited from earlier work
[7] = Severe acute respiratory syndrome coronavirus 2, Vero C1008, read-out: IC50 (50% decrease in the titre of supernatant virus), MOI 0.05, 48 h
[8] = purified RdRP, 2 hours at 37°C, middle point between top and bottom plateaus, read-out: relative IC50 (RdRP polymerization activity)

SMILES	inhibition of RdRP polymerization activity (in words) [1]	IC50 [3, 7] [µM]	IC50 [1, 8] [µM]	other results
COc1nc(N)nc2c1ncn2[C@@H]1O[C@H](COP(=O)(N[C@@H](C)C(=O)OCC(C)(C)C)Oc2cccc3ccccc23)[C@@H](O)[C@@]1(C)O (some centres unmarked) [BMS-986094]	inhibited RdRP polymerization activity in a dose-dependent manner	26.6		IC50 [1]: 18.4 µM; cardiac effects (in words) [2]: harmful cardiac effects; total and genomic viral RNA levels in cell lysates (in words) [4]: consistently decreasing; concentration at which toxic to cells ([5]; 48 h): > 100 µM
C/C1=C2/[N-]C([C@H](CC(N)=O)[C@@]2(C)CCC(=O)NC[C@@H](C)OP(=O)([O-])O[C@H]2[C@@H](O)[C@@H](n3cnc4cc(C)c(C)cc43)O[C@@H]2CO)[C@]2(C)N=C(/C(C)=C3N=C(/C=C4N=C1[C@@H](CCC(N)=O)C\4(C)C)[C@@H](CCC(N)=O)[C@]\3(C)CC(N)=O)[C@@H](CCC(N)=O)[C@]2(C)CC(N)=O.[CH2-][C@H]1O[C@@H](n2cnc3c(N)ncnc32)[C@@H](O)[C@@H]1O.[Co+3] [Cobamamide, cobamamide]	inhibited RdRP polymerization activity in a dose-dependent manner		54.4	IC50 ([3]; read-out: IC50 (50% decrease in the titre of supernatant virus), MOI 0.05, 48 h): 403 µM; cytotoxicity ([5]; highest dose of 1mM): up to 20%
CC(C)OC(=O)[C@H](C)N[P@+]([O-])(OC[C@H]1O[C@@](C#N)(c2ccc3c(N)ncnn23)[C@](C)(O)[C@@H]1OC(=O)C(C)C)Oc1ccccc1 [GS-6620]				efficacy against SARS-CoV-2 (in words) [6]: lack of efficacy against SARS-CoV-2
C/C1=C2/[N-][C@H]([C@H](CC(N)=O)[C@@]2(C)CCC(=O)NC[C@@H](C)OP(=O)([O-])O[C@H]2[C@@H](O)[C@@H](n3cnc4cc(C)c(C)cc43)O[C@@H]2CO)[C@]2(C)N=C(/C(C)=C3N=C(/C=C4N=C1[C@@H](CCC(N)=O)C\4(C)C)[C@@H](CCC(N)=O)[C@]\3(C)CC(N)=O)[C@@H](CCC(N)=O)[C@]2(C)CC(N)=O.[Co+3].[OH-] [Hydroxocobalamin, hydroxocobalamin]	inhibited RdRP polymerization activity in a dose-dependent manner		90.4	
C/C1=C2/[N-][C@H]([C@H](CC(N)=O)[C@@]2(C)CCC(=O)NC[C@H](C)OP(=O)([O-])O[C@H]2[C@@H](O)[C@@H](n3cnc4cc(C)c(C)cc43)O[C@@H]2CO)[C@]2(C)N=C(/C(C)=C3N=C(/C=C4N=C1[C@@H](CCC(N)=O)C\4(C)C)[C@@H](CCC(N)=O)[C@]\3(C)CC(N)=O)[C@@H](CCC(N)=O)[C@]2(C)CC(N)=O.[CH3-].[Co+3] [Mecobalamin, methylcobalamin]	inhibited RdRP polymerization activity in a dose-dependent manner		85.7	
CCC(CC)COC(=O)[C@H](C)N[P@](=O)(OC[C@H]1O[C@@](C#N)(c2ccc3c(N)ncnn23)[C@H](O)[C@@H]1O)Oc1ccccc1 [Remdesivir]		1		cytotoxic effects (in words) [5]: did not exert observable cytotoxic effects
